Test results reported in US20160037780A1, “BORON CONTAINING COMPOUNDS AND USES THEREOF” (EMPIRE TECHNOLOGY DEVELOPMENT LLC, priority 2013, published 2016).

Legend:
[1] = 14-day leaching procedure (AWPA E11-10), boron in leachate by azomethine H method; format: physicochemical; conditions: 14-day water leaching of treated blocks
Protocol: (§1) Six blocks from each treatment group were subjected to a 14-day leaching procedure as described AWPA Standard E11-10 from the American Wood Preservers' Association's (AWPA) “Standard method of determining the leachability of wood preservatives” in the AWPA Book of Standards, Birmingham, Ala., 2010. The blocks were immersed in an excess of water, and subjected to a short vacuum. The water was then changed after 6, 24, and 48 hours of immersion and at 48 hour intervals over a total of 14 days. An aliquot of the leachate was retained at each time point for later analysis. The leached blocks were then reconditioned to constant weight at 23° C. and 65% relative humidity. Leachate collected at each time point was analyzed for boron using the azomethine H method as described in AWPA Standard A2-10 Method 16. All of the blocks were briefly soaked with water prior to being placed in plastic bags and sterilized by exposure to 2.5 mrad of ionizing radiation from a cobalt 60 source.

[2] = tested on: Gloeophyllum trabeum; test: Soil block test (AWPA E10-10), decay resistance of treated wood blocks; format: cell-based; conditions: 12 weeks at 28° C., mean of 6 blocks (SD)
Protocol: Soil Block Test. The soil block test (AWPA, 2010) is a relatively rapid laboratory method for assessing the decay resistance of wood-based materials under conditions that favor rapid fungal attack of wood. Soil block tests were conducted upon blocks treated with compounds and compositions described herein. Leachates from the blocks were collected prior to fungal exposure and analyzed.
Ponderosa pine (Pinus ponderosa L) sapwood blocks (19 mm cubes) were oven dried (60° C.) and weighed. The blocks were then randomly allocated, in groups of 12, to the various treatment groups. Treatment solutions containing actives (e.g., the compounds and compositions described herein) were supplied as 10% active ingredient concentrates. These solutions were then diluted with toluene to produce treatment solutions containing 0.1, 0.5, 1.0 and 3.0% active ingredient solutions. The blocks from a given group were placed in a container and covered with an excess of a given treatment solution. This container was placed in a desiccator. A vacuum was drawn over the vessel and then released. The blocks were removed from the treatment solution and blotted to remove excess solution before being weighed. The difference between the original dry weight and the wet weight was used to calculated net solution uptake. The blocks were stored wet for 3 days at 20-23° C. to allow any fixation reactions to proceed before being oven dried at 60° C. and weighed. The blocks were then conditioned to constant weight at 23° C. and 65% relative humidity prior to further testing.
as §1
Decay chambers were prepared by half filling 454 ml French squares with moisture forest loam and placing a western hemlock feeder strip on the soil surface as described in AWPA Standard E10-10 “Standard method of testing wood preservatives by laboratory soil-block cultures.” The bottles were then loosely capped and autoclaved for 45 minutes at 121° C.
After cooling, the bottles were inoculated with 2 to 3 mm diameter malt agar disks cut from the actively growing edges of cultures of the test fungus, Gloeophyllum trabeum (Pers. ex Fr.) Murr. (Isolate: Madison 617). This fungus causes a brown rot of wood and tends to have some tolerance to boron compounds. The agar plugs were placed on the edges of the wood feeder strips, and the jars were loosely capped (to allow air exchange), and incubated until the feeder strip was thoroughly covered with fungal mycelium. The sterile test blocks were then placed on the surfaces of the feeder strips, the bottles were loosely capped and incubated at 28° C. for 12 weeks.
At the end of the incubation period, the blocks were removed, scraped clean of adhering mycelium and weighed to determine wet weight. The blocks were then oven dried (60° C.) and weighed. Differences between initial and final oven-dry weight were used as a measure of the decay resistance of each material.

In the case of Borate, the “Boron concentrations in leachates (rank among formulations)” value [1] is reported as “highest”, the “Average Wood Weight Loss” value ([2]; 0.1% B, Leaching + (first line of treatment)) is reported as 50.8 (4.2) % and the “Average Wood Weight Loss” value ([2]; 0.1% B, second line of treatment, Leaching +) is reported as 53.8 (11.5) %. For the same substance, the “Average Wood Weight Loss” value ([2]; 0.5% B, Leaching + (first line of treatment)) was 46.5 (3.3) %, the “Average Wood Weight Loss” value ([2]; 0.5% B, second line of treatment, Leaching +) was 46.3 (2.4) % and the “Average Wood Weight Loss” value ([2]; 1.0% B, Leaching + (first line of treatment)) was 53.6 (4.3) %. For the same substance, the “Average Wood Weight Loss” value ([2]; 1.0% B, second line of treatment, Leaching +) was 48.3 (8.7) %, the “Average Wood Weight Loss” value ([2]; 3.0% B, Leaching + (first line of treatment)) was 51.8 (8.3) % and the “Average Wood Weight Loss” value ([2]; 3.0% B, second line of treatment, Leaching printed + (probably non-leached)) was 27.3 (6.9) %.
